# Article PMC6934184, “Selective DNA-PKcs inhibition extends the therapeutic index of localized radiotherapy and chemotherapy” (The Journal of Clinical Investigation, 2019)
# Target: T1, ABL1 (Homo sapiens, UniProt P00519)
# T1 construct: purchased Thermo Fisher Scientific (Life Technologies) SelectScreen
# Assay: SelectScreen Z'LYTE
# Type: biochemical
# In short: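 Compound tested in SelectScreen activity assays, Z'LYTE for CSF1R, CDK1/cyclin B and MAP2K6 and Adapta for CAMK1. ATP for CAMK1 was listed as 10, and Km app was used for CSF1R. Results are expressed in percent.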
# T1 sequence (P00519 whole entry): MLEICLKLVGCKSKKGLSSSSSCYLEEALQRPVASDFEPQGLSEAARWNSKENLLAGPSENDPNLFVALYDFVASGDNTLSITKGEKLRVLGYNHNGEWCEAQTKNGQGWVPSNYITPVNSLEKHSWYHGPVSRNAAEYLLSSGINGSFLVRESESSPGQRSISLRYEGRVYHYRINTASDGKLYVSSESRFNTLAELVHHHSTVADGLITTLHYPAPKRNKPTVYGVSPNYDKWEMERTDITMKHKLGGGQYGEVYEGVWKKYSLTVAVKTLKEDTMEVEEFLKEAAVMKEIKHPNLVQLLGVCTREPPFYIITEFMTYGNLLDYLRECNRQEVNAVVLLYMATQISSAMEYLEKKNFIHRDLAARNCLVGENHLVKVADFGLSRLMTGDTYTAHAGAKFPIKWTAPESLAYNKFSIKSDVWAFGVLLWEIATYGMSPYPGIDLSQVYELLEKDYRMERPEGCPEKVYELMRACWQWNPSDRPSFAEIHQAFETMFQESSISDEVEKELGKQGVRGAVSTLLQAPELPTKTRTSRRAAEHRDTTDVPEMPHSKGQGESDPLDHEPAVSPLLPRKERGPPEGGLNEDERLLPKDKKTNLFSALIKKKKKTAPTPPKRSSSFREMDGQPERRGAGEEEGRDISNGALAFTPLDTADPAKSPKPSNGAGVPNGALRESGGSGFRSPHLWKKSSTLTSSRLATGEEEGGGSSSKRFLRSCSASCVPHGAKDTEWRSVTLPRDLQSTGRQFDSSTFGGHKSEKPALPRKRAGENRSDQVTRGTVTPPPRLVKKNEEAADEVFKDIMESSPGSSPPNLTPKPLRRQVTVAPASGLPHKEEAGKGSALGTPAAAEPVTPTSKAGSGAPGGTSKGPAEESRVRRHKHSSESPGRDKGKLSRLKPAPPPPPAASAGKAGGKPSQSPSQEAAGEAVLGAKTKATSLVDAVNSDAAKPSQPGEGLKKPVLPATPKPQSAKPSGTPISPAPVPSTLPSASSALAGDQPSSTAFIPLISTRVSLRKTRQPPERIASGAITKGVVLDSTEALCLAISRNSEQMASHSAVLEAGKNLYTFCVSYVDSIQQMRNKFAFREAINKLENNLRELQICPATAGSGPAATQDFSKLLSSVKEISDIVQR
compound,measurement,value
CN(C(=O)CN1CCOCC1)c1ccc2sc3c(-c4cccc5c(=O)cc(N6CC7CCC(C6)O7)oc45)cccc3c2c1 [NU5455],inhibition at 1 µM,10.4%
